Source: patent publication US8217042B2, “Pyridopyrazines and their use as modulators of kinases” (Zentaris GmbH, priority 2005, dated 2012)
Structures can show the parent of a compound that is named as a salt.

What was measured:
[1] = molecular target: T1, PI3Kalpha (Homo sapiens, UniProt P42336); assay: Cell-free kinase assay (ALPHA technology), PI3K-ALPHA; assay type: biochemical; conditions: 100 μM ATP, recombinant human kinase
T1 construct: in some cases as full-length kinases, in some cases as truncated fragments; purchased Upstate 14-602
T1 sequence (P42336 whole entry, the tested form may be a part): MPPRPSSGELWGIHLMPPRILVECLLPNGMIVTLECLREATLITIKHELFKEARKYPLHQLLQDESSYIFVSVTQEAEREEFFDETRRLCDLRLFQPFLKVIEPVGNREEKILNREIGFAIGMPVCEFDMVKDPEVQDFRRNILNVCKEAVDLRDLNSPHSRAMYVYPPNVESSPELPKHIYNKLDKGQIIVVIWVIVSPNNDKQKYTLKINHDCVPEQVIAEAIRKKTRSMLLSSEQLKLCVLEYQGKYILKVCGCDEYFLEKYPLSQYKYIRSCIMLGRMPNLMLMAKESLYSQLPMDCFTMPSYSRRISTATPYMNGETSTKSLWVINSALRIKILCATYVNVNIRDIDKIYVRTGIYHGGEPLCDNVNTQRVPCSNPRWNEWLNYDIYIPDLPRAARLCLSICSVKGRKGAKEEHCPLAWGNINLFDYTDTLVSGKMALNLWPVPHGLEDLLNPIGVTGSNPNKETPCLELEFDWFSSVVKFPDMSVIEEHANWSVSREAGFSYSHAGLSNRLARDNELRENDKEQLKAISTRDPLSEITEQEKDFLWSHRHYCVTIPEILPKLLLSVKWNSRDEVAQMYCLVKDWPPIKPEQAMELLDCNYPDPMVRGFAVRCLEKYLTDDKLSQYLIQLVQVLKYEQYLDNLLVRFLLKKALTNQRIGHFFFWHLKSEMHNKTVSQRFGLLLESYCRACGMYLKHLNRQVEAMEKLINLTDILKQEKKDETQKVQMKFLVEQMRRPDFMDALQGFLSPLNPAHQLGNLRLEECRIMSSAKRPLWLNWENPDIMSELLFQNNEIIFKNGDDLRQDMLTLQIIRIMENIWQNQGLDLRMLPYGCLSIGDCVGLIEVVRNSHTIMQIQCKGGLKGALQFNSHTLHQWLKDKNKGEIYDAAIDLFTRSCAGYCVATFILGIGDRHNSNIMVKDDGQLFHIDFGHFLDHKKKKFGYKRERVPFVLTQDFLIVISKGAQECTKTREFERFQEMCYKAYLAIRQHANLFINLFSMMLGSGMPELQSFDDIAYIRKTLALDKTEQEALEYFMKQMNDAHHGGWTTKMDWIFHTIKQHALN
T1 sequence (P27986 whole entry partner, the tested form may be a part): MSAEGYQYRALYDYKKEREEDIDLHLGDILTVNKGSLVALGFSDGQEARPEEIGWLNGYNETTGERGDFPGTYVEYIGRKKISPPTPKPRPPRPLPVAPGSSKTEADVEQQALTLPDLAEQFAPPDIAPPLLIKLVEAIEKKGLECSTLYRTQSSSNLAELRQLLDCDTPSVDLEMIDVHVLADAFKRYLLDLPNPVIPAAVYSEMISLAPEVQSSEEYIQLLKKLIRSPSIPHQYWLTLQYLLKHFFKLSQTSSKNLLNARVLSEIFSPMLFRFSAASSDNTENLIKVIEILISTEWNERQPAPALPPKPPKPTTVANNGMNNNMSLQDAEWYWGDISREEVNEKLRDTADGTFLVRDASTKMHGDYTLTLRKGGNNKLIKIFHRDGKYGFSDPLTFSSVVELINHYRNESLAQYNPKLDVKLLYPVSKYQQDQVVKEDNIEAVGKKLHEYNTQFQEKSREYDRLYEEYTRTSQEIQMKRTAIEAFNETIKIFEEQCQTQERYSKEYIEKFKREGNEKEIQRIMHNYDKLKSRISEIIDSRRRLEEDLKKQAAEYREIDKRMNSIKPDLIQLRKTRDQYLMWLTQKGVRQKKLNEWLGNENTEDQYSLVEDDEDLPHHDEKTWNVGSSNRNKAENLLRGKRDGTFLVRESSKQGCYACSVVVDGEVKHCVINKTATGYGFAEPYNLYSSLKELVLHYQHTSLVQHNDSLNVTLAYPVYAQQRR
Description: (§1) The inhibitory effect of the inventive compounds was tested on various human serine/threonine kinases, tyrosine kinases and lipid kinases in enzymatic assays. Recombinant human kinases, for example Erk2, PI3Kalpha, -beta, -gamma, -delta, p38alpha, p38gamma, Jnk1, Jnk2 and others were used, in some cases as full-length kinases, in some cases as truncated fragments—but at least consisting of the functional kinase domains. The commercial kinase proteins (Proqinase, Upstate) were used as recombinant fusion proteins with GST (glutathione S-transferase) tag or His tag. Depending on the substrate type, the different kinase reactions were quantified by means of suitable ALPHA™ beads (PerkinElmer).
(§2) The substrate testing on the Erk assay is described in detail below. Selected test results of the Erk2, PI3Kalpha assays are cited below. […] The kinase reaction was then stopped by adding 10 μl of the ALPHA bead mix (10 μg/ml, #6760617/PerkinElmer), pre-incubated with anti-phospho MBP antibody (320 μM, #05-429/Upstate), in 25 mM Tris, 200 mM NaCl, 100 mM EDTA and 0.3% BSA, and left to stand overnight. • b) PI3K-ALPHAs (e.g. PI3Kalpha): The test substance, 1 ng of PI3Kalpha (#14-602, Upstate), 100 μM ATP and 20 μM PIP2 substrate (#P4508, Echelon) on a 384-well Optiplate (Perkin Elmer) for 1 h in 50 mM Hepes, 50 mM NaCl, 5 mM MgCl2, 0.05% Chaps, 5 mM DTT at pH 7.4. Subsequently, the kinase reaction was stopped by adding the ALPHA bead mix (10 μg/ml, #6760603/PerkinElmer), preincubated with 1 nM GST:Grp1 fusion protein (Upstate) and 15 nM biotinylated PIP3 (#C-39B6/Echelon) in 50 mM Hepes, 50 mM NaCl, 50 mM EDTA and 0.1% BSA, and left to stand overnight.
(§3) The fluorescence was detected the next morning in a Fusion™ alpha instrument (Perkin Elmer).
(§4) The calculation of % inhibition values per substance concentration was done by means of the following formula from the raw data determined in the Fusion™ alpha:
(§5) The controls were each determined 8 times, the substance samples each twice. 0% control contained neither any ATP nor any substrate; the 100% control contained no test substance. The IC50 values were determined with GraphPadPrism.

[2] = molecular target: T2, Erk2; assay: Cell-free kinase assay (ALPHA technology), Erk2-ALPHA; assay type: biochemical; conditions: 10 μM ATP, recombinant human kinase
T2 construct: in some cases as full-length kinases, in some cases as truncated fragments; purchased Upstate 14-173
T2 sequence (P63085 whole entry, the tested form may be a part): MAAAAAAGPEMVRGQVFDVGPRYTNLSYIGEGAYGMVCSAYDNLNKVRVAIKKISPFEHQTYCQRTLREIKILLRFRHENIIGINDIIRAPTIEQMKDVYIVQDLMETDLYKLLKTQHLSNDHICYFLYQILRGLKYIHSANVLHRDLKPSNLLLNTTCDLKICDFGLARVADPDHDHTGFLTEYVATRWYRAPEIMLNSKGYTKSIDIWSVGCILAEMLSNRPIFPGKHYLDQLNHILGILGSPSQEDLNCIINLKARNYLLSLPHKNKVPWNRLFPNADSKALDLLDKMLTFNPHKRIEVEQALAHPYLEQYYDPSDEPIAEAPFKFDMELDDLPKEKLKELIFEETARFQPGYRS
Description: as §1, §2, §3, §4, §5

[3] = system: Jnk1 + Jnk2; assay: Cell-free kinase assay (ALPHA technology), Jnk1 + Jnk2; assay type: biochemical; conditions: at 10 μM or 100 μM* ATP, recombinant human kinases
Description: as §1, with “(PerkinElmer). […]” for “(PerkinElmer).”
as §3, §4, §5

[4] = molecular target: T3, p38alpha (Homo sapiens, UniProt Q16539); assay: Cell-free kinase assay (ALPHA technology), p38alpha; assay type: biochemical; conditions: at 10 μM or 100 μM* ATP, recombinant human kinase
T3 construct: in some cases as full-length kinases, in some cases as truncated fragments
T3 sequence (Q16539 whole entry, the tested form may be a part): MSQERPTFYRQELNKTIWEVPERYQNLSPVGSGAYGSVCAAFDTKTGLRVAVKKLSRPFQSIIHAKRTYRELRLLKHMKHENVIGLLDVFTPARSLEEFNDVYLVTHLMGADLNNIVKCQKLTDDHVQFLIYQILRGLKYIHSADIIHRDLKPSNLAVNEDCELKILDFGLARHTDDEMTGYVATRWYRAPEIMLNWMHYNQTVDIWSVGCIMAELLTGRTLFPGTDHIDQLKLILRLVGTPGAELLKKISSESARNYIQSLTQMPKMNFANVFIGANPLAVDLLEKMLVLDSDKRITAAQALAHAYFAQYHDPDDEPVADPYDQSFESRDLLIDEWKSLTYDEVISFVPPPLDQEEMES
Description: as §1, with “(PerkinElmer). […]” for “(PerkinElmer).”
as §3, §4, §5

Structure (SMILES): CCNC(=O)Nc1ccc2ncc(-c3cccc([Si](C)(C)C)c3)nc2n1
- melting point: 224 to 228 °C

Structure (SMILES): COCCOC(=O)Oc1ccc(-c2cnc3ccc(NC(=O)NCCCCO)nc3n2)cc1 (as salt: hydrochloride) [Compound 58, 4-{6-[3-(4-Hydroxybutyl)urea]pyrido[2,3-b]pyrazin-3-yl}phenyl 2-methoxyethyl carbonate hydrochloride]
- melting point: 165 to 168 °C

Structure (SMILES): CCNC(=O)Nc1ccc2ncc(C#Cc3ccccc3)nc2n1 [Compound 1, 1-Ethyl-3-(3-phenylethynylpyrido[2,3-b]pyrazin-6-yl)urea]
- melting point: 236 to 238 °C (dec.)

Structure (SMILES): CCNC(=O)Nc1ccc2ncc(C#Cc3ccsc3)nc2n1 [Compound 2, 1-Ethyl-3-(3-thiophen-3-ylethynylpyrido[2,3-b]pyrazin-6-yl)urea]
- melting point: 239 to 242 °C (dec.)

Structure (SMILES): CCNC(=O)Nc1ccc2ncc(C#CC3CC3)nc2n1 [Compound 3, 1-(3-Cyclopropylethynylpyrido[2,3-b]pyrazin-6-yl)-3-ethylurea]
- melting point: 227 to 228 °C (dec.)

Structure (SMILES): CCNC(=O)Nc1ccc2ncc(/C=C/C3CCCCC3)nc2n1 [Compound 5, 1-[3-((E)-2-Cyclohexylvinyl)pyrido[2,3-b]pyrazin-6-yl]-3-ethylurea]
- melting point: 202 to 204 °C (dec.)

Structure (SMILES): CCNC(=O)Nc1ccc2ncc(/C=C/COC)nc2n1 [Compound 6, 1-Ethyl-3-[3-((E)-3-methoxypropenyl)pyrido[2,3-b]pyrazin-6-yl]urea]
- IC50 [1]: 21300 nM
- IC50 [2]: 2400 nM

Structure (SMILES): CONC(=O)Nc1ccc2ncc(-c3ccccc3)nc2n1 [Compound 7, 1-Methoxy-3-(3-phenylpyrido[2,3-b]pyrazin-6-yl)urea]
- IC50 [3]: 11.4 µM
- IC50 [4]: > 100 µM

Structure (SMILES): C=CCONC(=O)Nc1ccc2ncc(-c3ccccc3)nc2n1 [Compound 8, 1-Allyloxy-3-(3-phenylpyrido[2,3-b]pyrazin-6-yl)urea]
- IC50 [3]: 19.4 µM
- IC50 [4]: > 100 µM

Structure (SMILES): CCNC(=O)Nc1ccc2ncc(-c3ccc(OC(=O)Oc4ccccc4)cc3)nc2n1 [Compound 11, 4-[6-(3-Ethylurea)pyrido[2,3-b]pyrazin-3-yl]phenyl phenyl carbonate]
- IC50 [3]: > 100 µM

Structure (SMILES): CCNC(=O)Nc1ccc2ncc(-c3ccc(OC(=O)N(CC)CC)cc3)nc2n1 [Compound 12, 4-[6-(3-Ethylurea)pyrido[2,3-b]pyrazin-3-yl]phenyl diethylcarbamate]
- IC50 [3]: 0.637 µM
- IC50 [4]: 8.8 µM

Structure (SMILES): CCNC(=O)Nc1ccc2ncc(-c3ccc(OC(=O)/C=C/c4ccccc4)cc3)nc2n1 [Compound 13, 4-[6-(3-Ethylurea)pyrido[2,3-b]pyrazin-3-yl]phenyl (E)-3-phenylacrylate]
- IC50 [3]: > 100 µM
- melting point: 236 to 238 °C
- IC50 [2]: 640 nM

Structure (SMILES): CCNC(=O)Nc1ccc2ncc(-c3ccc(OC(=O)N(C)C)cc3)nc2n1 [Compound 19, 4-[6-(3-Ethylurea)pyrido[2,3-b]pyrazin-3-yl]phenyl dimethylcarbamate]
- IC50 [3]: 10.1 µM
- melting point: > 230 °C (dec.)
- IC50 [1]: 2300 nM
- IC50 [2]: 3900 nM

Structure (SMILES): CCNC(=O)Nc1ccc2ncc(-c3ccc(NC(=O)OC(C)(C)C)cc3)nc2n1 [Compound 21, tert-Butyl {4-[6-(3-ethylurea)pyrido[2,3-b]pyrazin-3-yl]phenyl}carbamate]
- IC50 [3]: > 31.6 µM
- melting point: 281 to 283 °C
- IC50 [1]: 1200 nM
- IC50 [2]: > 100000 nM

Structure (SMILES): CCNC(=O)Nc1ccc2ncc(-c3ccc(NC(=O)OCCOC)cc3)nc2n1 [Compound 22, 2-Methoxyethyl {4-[6-(3-ethylurea)pyrido[2,3-b]pyrazin-3-yl]phenyl}carbamate]
- IC50 [3]: > 31.6 µM
- melting point: 249 to 251 °C
- IC50 [1]: 1200 nM
- IC50 [2]: > 100000 nM

Structure (SMILES): CCNC(=O)Nc1ccc(-c2cnc3ccc(NC(=O)NCC)nc3n2)cn1 [Compound 25, 1-Ethyl-3-{3-[6-(3-ethylurea)pyridin-3-yl]pyrido[2,3-b]pyrazin-6-yl}urea]
- IC50 [3]: 24.2 µM
- IC50 [1]: 4400 nM
- IC50 [2]: 3400 nM

Structure (SMILES): CCNC(=O)Nc1ccc2ncc(CCc3ccc(F)cc3)nc2n1 [Compound 26, 1-Ethyl-3-{3-[2-(4-fluorophenyl)ethyl]pyrido[2,3-b]pyrazin-6-yl}urea]
- melting point: 207 to 209 °C

Structure (SMILES): CCNC(=O)Nc1ccc2ncc(/C=C/c3ccc(F)cc3)nc2n1 [Compound 27, 1-Ethyl-3-{3-[(E)-2-(4-fluorophenyl)vinyl]pyrido[2,3-b]pyrazin-6-yl}urea]
- melting point: 217 to 219 °C

Structure (SMILES): CCNC(=O)Nc1ccc2ncc(-c3ccc(CN4CCOCC4)cc3)nc2n1 [Compound 28, 1-Ethyl-3-[3-(4-morpholin-4-ylmethylphenyl)pyrido[2,3-b]pyrazin-6-yl]urea]
- IC50 [3]: 5 µM
- IC50 [1]: 1800 nM
- IC50 [2]: 364 nM
- IC50 [4]: > 100 µM

Structure (SMILES): CCNC(=O)Nc1ccc2ncc(-c3ccc(OCCOCCOC)cc3)nc2n1 [Compound 29, 1-Ethyl-3-(3-{4-[2-(2-methoxyethoxy)ethoxy]phenyl}pyrido[2,3-b]pyrazin-6-yl)urea]
- IC50 [3]: 24.2 µM
- IC50 [1]: 2300 nM
- IC50 [2]: 396 nM
- IC50 [4]: > 100 µM

Structure (SMILES): CCNC(=O)Nc1ccc2ncc(-c3ccc(NC(=O)COCCOC)cc3)nc2n1 [Compound 30, N-{4-[6-(3-Ethylurea)pyrido[2,3-b]pyrazin-3-yl]phenyl}-2-(2-methoxyethoxy)acetamide]
- IC50 [3]: 13.8 µM
- melting point: 212 to 215 °C
- IC50 [1]: 749 nM
- IC50 [2]: > 31600 nM

Structure (SMILES): CCOP(=O)(CCCCNC(=O)Nc1ccc2ncc(-c3ccc(O)c(OC)c3)nc2n1)OCC [Compound 44, Diethyl (4-{3-[3-(4-hydroxy-3-methoxyphenyl)pyrido[2,3-b]pyrazin-6-yl]urea}butyl)phosphonate]
- IC50 [3]: 8.4 µM
- IC50 [1]: 10700 nM
- IC50 [2]: 2800 nM

Structure (SMILES): COc1cc(-c2cnc3ccc(NC(=O)NCCCCP(=O)(O)O)nc3n2)ccc1O [Compound 45, (4-{3-[3-(4-Hydroxy-3-methoxyphenyl)pyrido[2,3-b]pyrazin-6-yl]urea}butyl)phosphonic acid]
- IC50 [3]: 0.974 µM
- IC50 [1]: 12500 nM
- IC50 [2]: 243 nM

Structure (SMILES): CCNC(=O)Nc1ccc2ncc(Nc3ccc(C4CCCCC4)cc3)nc2n1 [Compound 47, 1-[3-(4-Cyclohexylphenylamino)pyrido[2,3-b]pyrazin-6-yl]-3-ethylurea]
- melting point: 246 to 248 °C

Structure (SMILES): CCNC(=O)Nc1ccc2ncc(Nc3ccc(S(C)(=O)=O)cc3)nc2n1 [Compound 48, 1-Ethyl-3-[3-(4-methanesulphonylphenylamino)pyrido[2,3-b]pyrazin-6-yl]urea]
- IC50 [3]: > 31.6 µM
- melting point: 275 to 280 °C
- IC50 [1]: 1100 nM
- IC50 [2]: > 100000 nM
- IC50 [4]: > 100 µM

Structure (SMILES): CCNC(=O)Nc1ccc2ncc(Nc3ccc(-c4ccsc4)cc3)nc2n1 [Compound 52, 1-Ethyl-3-[3-(4-thiophen-3-ylphenylamino)pyrido[2,3-b]pyrazin-6-yl]urea]
- melting point: 264 to 267 °C

Structure (SMILES): CCNC(=O)Nc1ccc2ncc(Nc3ccc(NC(C)=O)cc3)nc2n1 [Compound 53, N-{4-[6-(3-Ethylurea)pyrido[2,3-b]pyrazin-3-ylamino]phenyl}acetamide]
- IC50 [3]: 20.4 µM
- IC50 [1]: 677 nM
- IC50 [2]: 16500 nM

Structure (SMILES): CCNC(=O)Nc1ccc2ncc(-c3ccc(OC(=O)OCCOC)cc3)nc2n1 [Compound 55, 4-[6-(3-Ethylurea)pyrido[2,3-b]pyrazin-3-yl]phenyl 2-methoxyethyl carbonate hydrochloride]
- IC50 ([3]; hydrochloride): 2.9 µM
- IC50 ([1]; hydrochloride): 3600 nM
- IC50 [2]: 812 nM

Structure (SMILES): COCCOC(=O)Oc1ccc(-c2cnc3ccc(NC(=O)NCCCCO)nc3n2)cc1 [Compound 58, 4-{6-[3-(4-Hydroxybutyl)urea]pyrido[2,3-b]pyrazin-3-yl}phenyl 2-methoxyethyl carbonate hydrochloride]
- IC50 [3]: 2.5 µM
- IC50 [1]: 4300 nM
- IC50 [2]: 763 nM
